Experimental data taken from patent US11464756B1, “Mecuna pruriens, L-DOPA and 5-HTP based dietary supplements, pharmaceutical formulations and uses thereof” (priority 2017, dated 2022).

Legend:
serotonin levels = assay: Short term rise of serotonin levels after taking 5-HTP; assay type: in vivo; conditions: short term result of taking 5-HTP
Experimental: Recently 5-HTP has been introduced to the US market. […] Taking 5-HTP in any of several forms can raise serotonin levels in a natural way by “Filling the Well”. There appears to be both a short term and long term results from taking 5-HTP. Short term there seems to be a ‘burst’ lasting 4-5 hours when levels rise, and long term as the “reservoir” or “water table” rises, to extend the metaphor, we notice that it takes much less 5-HTP to achieve the same result.

[1] = cited from earlier work

**Q.** Which results are given for `N[C@@H](Cc1c[nH]c2ccc(O)cc12)C(=O)O` [Example 5-HTP, 5-Hydroxy-tryptophan]?
**A.** duration of short term 'burst' when levels rise (serotonin levels): 4 to 5 h; time in which it is decarboxylated in the bloodstream [1]: ≤ 45 min
